SMILES strings stand for the structures. Converted amounts (≈) assume the structure as drawn.

Data set [1] in a line: Thermodynamic solubility of the compound. It counts as physicochemical. To be noted: read-out: Therm_solubility.
The nature of data set [2]: Oral bioavailability in rat. It counts as ADME, organism-based. To be noted: in vivo.
Data set [3] is described as follows: Solubility of the compound in FaSSIF at pH 6.4. Format: physicochemical.
A short description of data set [4]: Oral bioavailability in dog. Format: ADME, organism-based, Canis lupus familiaris. Particulars: in vivo.
Data set [5] can be described thus: Oral bioavailability in mouse. It counts as ADME, organism-based. Particulars: in vivo.
Data set [6] in a line: Oral bioavailability in monkey. Format: ADME, organism-based, Macaca mulatta. Particulars: rhesus monkey, in vivo.
The nature of data set [7]: Solubility of the compound in FeSSIF at pH 5.2. Format: physicochemical.
Data set [8] can be described thus: Volume of distribution at steady state in rat. It counts as ADME, organism-based. To be noted: in vivo, read-out: Vdss.
Data set [9] in a line: Volume of distribution at steady state in dog. Format: ADME, organism-based, Canis lupus familiaris. Particulars: in vivo, read-out: Vdss.
Data set [10] is described as follows: Volume of distribution at steady state in monkey. It counts as ADME, organism-based, Macaca mulatta. Particulars: rhesus monkey, in vivo; read-out: Vdss.
Data set [11] in a line: Volume of distribution at steady state in mouse. It counts as ADME, organism-based. To be noted: in vivo, read-out: Vdss.
Data set [12] can be described thus: Solubility of the compound in PBS at pH 7.4. It counts as physicochemical.

Broadly, the solubility (kinetic) is solubility judged after dilution from a stock solution rather than from solid. Take `Cn1cc(-c2ccc(Cc3n[nH]c4ccc(NS(C)(=O)=O)cc34)cc2)cn1`: the kinetic solubility in the data set “physchem” worked out at 153 µM (≈ 58.4 µg/mL).

The compound `COC1CN(C(=O)c2ccc3[nH]nc(Cc4ccc(-c5cnn(C)c5)cc4)c3c2)C1` registered a kinetic solubility in “physchem” of 170 µM (≈ 68.2 µg/mL).

As to `Cn1cc(-c2ccc(Cc3n[nH]c4ccc(S(=O)(=O)NC5CC5)cc34)cc2)cn1`, the kinetic solubility in the data set “physchem” came to 107 µM (≈ 43.6 µg/mL).

With `Cn1cc(-c2ccc(Cc3n[nH]c4ccc(N5CCOCC5)cc34)cc2)cn1`, the kinetic solubility in “physchem” was 153 µM (≈ 57.1 µg/mL).

Compound `Cn1cc(-c2ccc(Cc3n[nH]c4ccc(-c5nccn5C)cc34)cc2)cn1` showed a kinetic solubility in the data set “physchem” of 96 µM (≈ 35.4 µg/mL).

With `CNC(=O)c1ccc2[nH]nc(CC(C)C)c2c1`, in “physchem”, the solubility (kinetic) is > 200 µM.

In the data set “physchem”, `Cn1cc(-c2ccc(Cc3n[nH]c4ccc(C(=O)N5CCOCC5)cc34)cc2)cn1` yielded a solubility (kinetic) of 170 µM (≈ 68.2 µg/mL).

The compound `CNC(=O)c1ccc2[nH]nc(Cc3ccc4cnn(C)c4c3)c2c1` gave a kinetic solubility in the data set “physchem” of 192 µM (≈ 61.3 µg/mL).

For `COC1CN(C(=O)c2ccc3[nH]nc(Cc4ccc5c(cnn5C)c4)c3c2)C1`, in the data set “physchem”, the solubility (kinetic) is > 200 µM.

In the case of `Cn1ncc2cc(Cc3n[nH]c4ccc(C(=O)N5CC[C@H](O)C5)cc34)ccc21`, the kinetic solubility in the data set “physchem” is > 200 µM.

For the compound `CNC(=O)c1ccc2[nH]nc(Cc3ccc(OC)c(OC)c3)c2c1`, in “physchem”, the kinetic solubility worked out at 176 µM (≈ 57.3 µg/mL).

`Cn1ncc2cc(Cc3n[nH]c4ccc(C(=O)N5CCC(F)(F)C5)cc34)ccc21` yielded a solubility (kinetic) in “physchem” of 157 µM (≈ 62.1 µg/mL).

In the case of `Cn1cc(-c2ccc(Cc3n[nH]c4ccc(C(=O)N5CC(F)(F)C5)cc34)cc2)cn1`, in the data set “physchem”, the kinetic solubility is 89 µM (≈ 36.3 µg/mL).

`Cn1cc(-c2ccc(Cc3n[nH]c4ccc(C(=O)N5CC[C@@H](O)C5)cc34)cc2)cn1` yielded a kinetic solubility in the data set “physchem” of 181 µM (≈ 72.7 µg/mL).

`Cn1cc(-c2ccc(Cc3n[nH]c4ccc(C(=O)N5CC[C@H](O)C5)cc34)cc2)cn1`: in the data set “physchem”, the kinetic solubility was determined as 200 µM (≈ 80.3 µg/mL).

`Cn1cc(-c2ccc(Cc3n[nH]c4ccc(C(=O)N5CCCCC5)cc34)cc2)cn1` showed a kinetic solubility in the data set “physchem” of 106 µM (≈ 42.3 µg/mL).

For the compound `Cn1cc(-c2ccc(Cc3n[nH]c4ccc(C(=O)N5CC(O)C5)cc34)cc2)cn1`, in “physchem”, the kinetic solubility is 196 µM (≈ 75.9 µg/mL).

For the compound `CC(=O)Nc1ccc2[nH]nc(Cc3ccc(-c4cnn(C)c4)cc3)c2c1`, the solubility (kinetic) in the data set “physchem” is 115 µM (≈ 39.7 µg/mL).

Turning to `Cn1cnc(-c2ccc3[nH]nc(Cc4ccc(-c5cnn(C)c5)cc4)c3c2)c1`, in the data set “physchem”, the solubility (kinetic) came to 6 µM (≈ 2.21 µg/mL).

Take `CNC(=O)c1ccc2[nH]nc(Cc3ccc(-c4cnn(C)c4)cc3)c2c1`: the solubility thermodynamic in data set [1] was 0.006 mg/mL (≈ 17.4 µM). Moreover, the solubility (kinetic) in “physchem” came to 169 µM (≈ 58.4 µg/mL).

Regarding `Cn1cc(-c2ccc(Cc3n[nH]c4ccc(N5CCCC5=O)cc34)cc2)cn1`, the solubility (kinetic) in the data set “physchem” stood at 147 µM (≈ 54.6 µg/mL).

`Cn1cc(-c2ccc(Cc3n[nH]c4ccc(C(=O)N5CCNCC5)cc34)cc2)cn1`: the solubility (kinetic) in the data set “physchem” amounted to 186 µM (≈ 74.5 µg/mL).

The bioavailability is dose-corrected exposure relative to a reference, in per cent. A word on the solubility: it is the dissolved amount per volume that the medium holds. In the case of `CNC(=O)c1ccc2[nH]nc(Cc3ccc4c(cnn4C)c3)c2c1`, the bioavailability in data set [2] stood at 88%; in [4] it was 85%; in data set [5], 50%; in data set [6], 26%. Further, the solubility in data set [3] was determined as 0.032 mg/mL (≈ 100 µM); in data set [7] it was 0.059 mg/mL (≈ 185 µM); in data set [12], 0.006 mg/mL (≈ 18.8 µM). Also, the Vd was 0.85 L/kg in [8], 1.8 L/kg in data set [9], 0.95 L/kg in data set [10] and 0.69 L/kg in [11]. Moreover, in data set [1], the solubility thermodynamic worked out at 0.006 mg/mL (≈ 18.8 µM). Moreover, in the data set “physchem”, the solubility (kinetic) was > 200 µM.

Consider `CC(=O)NCCNc1ccc2[nH]nc(Cc3ccc(-c4cnn(C)c4)cc3)c2c1`, for which the solubility (kinetic) in the data set “physchem” stood at 183 µM (≈ 71.1 µg/mL).

`Cn1cc(-c2ccc(Cc3n[nH]c4ccc(C(N)=O)cc34)cc2)cn1` yielded a kinetic solubility in “physchem” of 173 µM (≈ 57.3 µg/mL).

`Cn1cc(-c2ccc(Cc3n[nH]c4ccc(C(=O)NC5CC5)cc34)cc2)cn1` gave a kinetic solubility in “physchem” of 76 µM (≈ 28.2 µg/mL).

For the compound `Cn1cc(-c2ccc(Cc3n[nH]c4ccc(C(=O)N5CCC(F)(F)C5)cc34)cc2)cn1`, in “physchem”, the solubility (kinetic) is 104 µM (≈ 43.8 µg/mL).

Consider `CNC(=O)c1ccc2[nH]nc(Cc3ccc(-c4cnn(CC(C)(C)O)c4)cc3)c2c1`, for which the solubility thermodynamic in data set [1] was 0.026 mg/mL (≈ 64.4 µM). Besides, the solubility (kinetic) in the data set “physchem” amounted to 182 µM (≈ 73.4 µg/mL).

In the data set “physchem”, `Cn1cc(-c2ccc(Cc3n[nH]c4ccc(-c5cc(N)ccn5)cc34)cc2)cn1` had a solubility (kinetic) of 53 µM (≈ 20.2 µg/mL).

On to `CNC(=O)c1ccc2[nH]nc(Cc3cccc(C)c3)c2c1`, for which the kinetic solubility in “physchem” amounted to 167 µM (≈ 46.7 µg/mL).
